Converted amounts (≈) assume the structure as drawn.
Legend:
[1] = system: Staphylococcus aureus, Methicillin Resistant (MRSA); assay: In vitro antibacterial activity, MIC by broth dilution; assay type: cell-based; conditions: for MIC: Staphylococcus aureus, MRSA, 20-72 hours at 37° C., Mueller-Hinton broth
[2] = system: Proteus vulgaris; assay: as above; assay type: cell-based; conditions: for MIC: Proteus vulgaris, 20-72 hours at 37° C., Mueller-Hinton broth
[3] = system: Enterococcus faecalis, Vancomycin resistant, clinical isolates; assay: as above; assay type: cell-based; conditions: for MIC: Enterococcus faecalis, 20-72 hours at 37° C., Tryptic Soy Broth with 7% calf serum
[4] = system: Staphylococcus pneumoniae, Erythromycin and Ampicillin resistant, clinical isolates; assay: as above; assay type: cell-based; conditions: for MIC: Staphylococcus, 20-72 hours at 37° C., Tryptic Soy Broth with 7% calf serum
[5] = system: Escherichia coli; assay: as above; assay type: cell-based; conditions: for MIC: Escherichia coli, 20-72 hours at 37° C., Nutrient Broth
[6] = system: Pseudomonas aeruginosa; assay: as above; assay type: cell-based; conditions: for MIC: Pseudomonas aeruginosa, 20-72 hours at 37° C., Nutrient Broth
[7] = system: Klebsiella pneumoniae; assay: as above; assay type: cell-based
[8] = system: Mycobacterium ranae; assay: as above; assay type: cell-based; conditions: for MIC: Mycobacterium, 20-72 hours at 37° C., Brain Heart Infusion broth
[9] = system: CCRF-CEM (leukemia); assay: NCI in vitro tumor cell growth inhibition (GI50); assay type: cell-based; conditions: Homo sapiens
[10] = system: RPMI-8226 (leukemia); assay: NCI in vitro tumor cell growth inhibition (GI50); assay type: cell-based; conditions: Homo sapiens
[11] = system: EKVX (non-small cell lung cancer); assay: NCI in vitro tumor cell growth inhibition (GI50); assay type: cell-based; conditions: Homo sapiens
[12] = system: SK-OV-3 (ovarian cancer); assay: NCI in vitro tumor cell growth inhibition (GI50); assay type: cell-based; conditions: Homo sapiens
[13] = system: 60 human tumor cell lines; assay: NCI in vitro tumor cell growth inhibition, whole panel; assay type: cell-based; conditions: for GI50: Homo sapiens, Mean values over 60 cell lines tested; for Range: Ratio of GI50 value for the least sensitive cell to the most sensitive cell
[14] = system: UO-31 (renal cancer); assay: NCI in vitro tumor cell growth inhibition (GI50); assay type: cell-based; conditions: Homo sapiens
[15] = system: SK-OV-5 (ovarian cancer); assay: NCI in vitro tumor cell growth inhibition (GI50); assay type: cell-based; conditions: Homo sapiens
[16] = system: SK-OV-4 (ovarian cancer); assay: NCI in vitro tumor cell growth inhibition (GI50); assay type: cell-based; conditions: Homo sapiens
[17] = system: CAKI-1 (renal cancer); assay: NCI in vitro tumor cell growth inhibition (GI50); assay type: cell-based; conditions: Homo sapiens
[18] = system: HL-60 (TB) (leukemia); assay: NCI in vitro tumor cell growth inhibition (GI50); assay type: cell-based; conditions: Homo sapiens
[19] = system: HOP-62 (non-small cell lung cancer); assay: NCI in vitro tumor cell growth inhibition (GI50); assay type: cell-based; conditions: Homo sapiens
[20] = system: NCI-H226 (non-small cell lung cancer); assay: NCI in vitro tumor cell growth inhibition (GI50); assay type: cell-based; conditions: Homo sapiens
[21] = system: RXF-393 (renal cancer); assay: NCI in vitro tumor cell growth inhibition (GI50); assay type: cell-based; conditions: Homo sapiens
[22] = 20-72 hours at 37° C., Nutrient Broth
[23] = Gentamicin, footnote b: MIC in μg/ml

Molecule	MIC [1]	MIC [2]	MIC [3]	MIC [4]	MIC [5]	MIC [6]	MIC, Kp [7, 22]	MIC [8]	melting point	other results
CC1COc2c(N3CCN(C)CC3)c(F)cc3c(=O)c(C(=O)O)cn1c23 (stereo not shown) [Ofloxacin, reference compound]	1.08 µM (≈ 0.39 µg/mL)	0.069 µM (≈ 0.0249 µg/mL)	4.32 µM (≈ 1.56 µg/mL)	4.32 µM (≈ 1.56 µg/mL)	0.28 µM (≈ 0.101 µg/mL)	2.16 µM (≈ 0.781 µg/mL)	0.036 µM	1.08 µM (≈ 0.39 µg/mL)		
CCn1cc(C(=O)O)c(=O)c2cc(F)c(N3CCNCC3)cc21 [Norfloxacin, reference compound]	4.89 µM (≈ 1.56 µg/mL)	0.16 µM (≈ 0.0511 µg/mL)	9.81 µM (≈ 3.13 µg/mL)	19.6 µM (≈ 6.26 µg/mL)	0.63 µM (≈ 0.201 µg/mL)	1.22 µM (≈ 0.39 µg/mL)	0.041 µM	9.81 µM (≈ 3.13 µg/mL)		
CCn1cc(C(=O)O)c(=O)c2cc(F)c(N3CCN(CC(=NO)c4ccc(OC)cc4)CC3)cc21 [Exp. 5, 1-Ethyl-6-fluoro-7-{4-[2-hydroxyimino-2-(4-methoxyphenyl)-ethyl]-1-piperazinyl}-4-oxo-1,4-dihydroquinoline-3-carboxylic acid]	0.41 µM (≈ 0.198 µg/mL)	3.24 µM (≈ 1.56 µg/mL)	3.24 µM (≈ 1.56 µg/mL)	13 µM (≈ 6.26 µg/mL)	1.62 µM (≈ 0.782 µg/mL)	25.9 µM (≈ 12.5 µg/mL)	0.027 µM	104 µM (≈ 50.2 µg/mL)	221 °C (dec.)	GI50 [9]: 24.4 µM; GI50 [10]: 38.4 µM; GI50 [11]: 46.8 µM; GI50 [12]: 37.2 µM; GI50 [13]: 31.8 µM; Range [13]: 182; GI50 [14]: 550 nM; GI50 [15]: > 100 µM; GI50 [16]: 55.1 µM; GI50 [17]: 6910 nM; GI50 [18]: 17700 nM; GI50 [19]: 52.3 µM; GI50 [20]: 93.3 µM
Gentamicin [reference compound]										MIC, MRSA [1, 23]: 0.78 µg/mL; MIC, Pv [2, 23]: 0.1 µg/mL; MIC, EfVRE [3, 23]: 50 µg/mL; MIC, SpEAR [4, 23]: 100 µg/mL; MIC, Ec [5, 23]: 0.20 µg/mL; MIC, Pa [6, 23]: 0.39 µg/mL; MIC, Kp [7, 23]: 0.2 µg/mL; MIC, Mr [8, 23]: 0.20 µg/mL
CCn1cc(C(=O)O)c(=O)c2cc(F)c(N3CCN(CC(=NOC)c4ccc(OC)cc4)CC3)cc21 [Exp. 7, 1-Ethyl-6-fluoro-7-{4-[2-methoxyimino-2-(4-methoxyphenyl)-ethyl]-1-piperazinyl}-4-oxo-1,4-dihydroquinoline-3-carboxylic acid]	1.57 µM (≈ 0.78 µg/mL)	6.31 µM (≈ 3.13 µg/mL)	12.6 µM (≈ 6.26 µg/mL)	12.6 µM (≈ 6.26 µg/mL)	6.31 µM (≈ 3.13 µg/mL)	202 µM (≈ 100 µg/mL)	1.57 µM	202 µM (≈ 100 µg/mL)	165 °C (dec.)	
CCn1cc(C(=O)O)c(=O)c2cc(F)c(N3CCN(CC(=NO)c4ccccc4)CC3)cc21 [Exp. 3, 1-Ethyl-6-fluoro-4-oxo-7-[4-(2-hydroxyimino-2-phenylethyl)-1-piperazinyl]-1,4-dihydroquinoline-3-carboxylic acid]	0.44 µM (≈ 0.199 µg/mL)	3.45 µM (≈ 1.56 µg/mL)			0.86 µM (≈ 0.389 µg/mL)	13.8 µM (≈ 6.24 µg/mL)	0.22 µM	55.3 µM (≈ 25 µg/mL)	203 °C (dec.)	
CCn1cc(C(=O)O)c(=O)c2cc(F)c(N3CCN(CC(=NO)c4ccc(Cl)cc4)CC3)cc21 [Exp. 10, 1-Ethyl-6-fluoro-7-{4-[2-(4-chlorophenyl)-2-hydroxyimino-ethyl]-1-piperazinyl}-4-oxo-1,4-dihydro-3-quinolinecarboxylic acid]										GI50 [9]: 67.4 µM; GI50 [10]: 3.21 µM; GI50 [11]: 19.2 µM; GI50 [12]: 28.7 µM; GI50 [13]: 9.31 µM; Range [13]: 2291; GI50 [14]: 30 nM; GI50 [21]: 720 nM; GI50 [15]: 22.8 µM; GI50 [16]: 32.1 µM; GI50 [17]: 400 nM; GI50 [18]: 1290 nM; GI50 [19]: 28.6 µM; GI50 [20]: 20.3 µM
CCn1cc(C(=O)O)c(=O)c2cc(F)c(N3CCN(C(=N)C(O)c4ccc(F)cc4)CC3)c(F)c21 (stereo not shown) [Exp. 11, 1-Ethyl-6,8-difluoro-7-{4-[2-(4-fluorophenyl)-2-hydroxy-iminoethyl]-1-piperazinyl}-4-oxo-1,4-dihydro-3-quinolinecarboxylic acid]									201 °C (dec.)	
CCn1cc(C(=O)O)c(=O)c2cc(F)c(N3CCN(CC(=NO)c4ccc(F)cc4)CC3)cc21 [Exp. 9, 1-Ethyl-6-fluoro-7-{4-[2-(4-fluorophenyl)-2-hydroxyimino-ethyl]-1-piperazinyl}-4-oxo-1,4-dihydro-3-quinolinecarboxylic acid]										GI50 [9]: 10.5 µM; GI50 [10]: 22.9 µM; GI50 [11]: 42.6 µM; GI50 [12]: 32 µM; GI50 [13]: 21.5 µM; Range [13]: 758; GI50 [14]: 130 nM; GI50 [21]: 170 nM; GI50 [15]: > 100 µM; GI50 [16]: 39.4 µM; GI50 [17]: 1890 nM; GI50 [18]: 980 nM; GI50 [19]: 42.6 µM; GI50 [20]: 53.5 µM
CCn1cc(C(=O)O)c(=O)c2cc(F)c(N3CCN(CC(=O)c4ccccc4)CC3)c(F)c21 [Exp. 4, 1-Ethyl-6,8-difluoro-1,4-dihydro-4-oxo-7-(4-phenacyl-1-piperazinyl)-quinoline-3-carboxylic acid]	1.71 µM (≈ 0.779 µg/mL)	0.22 µM (≈ 0.1 µg/mL)	13.7 µM (≈ 6.24 µg/mL)	13.7 µM (≈ 6.24 µg/mL)	0.22 µM (≈ 0.1 µg/mL)	0.86 µM (≈ 0.392 µg/mL)	0.055 µM	3.43 µM (≈ 1.56 µg/mL)	167 °C (dec.)	
CCn1cc(C(=O)O)c(=O)c2cc(F)c(N3CCN(CC(C)NN)CC3)cc21 (stereo not shown) [Exp. 1, 1-Ethyl-6-fluoro-7-[4-(2-hydrazinopropyl)-1-piperazinyl]-4-oxo-1,4-dihydroquinoline-3-carboxylic acid]	4.01 µM (≈ 1.57 µg/mL)	2.01 µM (≈ 0.787 µg/mL)	16.1 µM (≈ 6.3 µg/mL)	32.1 µM (≈ 12.6 µg/mL)	2.01 µM (≈ 0.787 µg/mL)	16.1 µM (≈ 6.3 µg/mL)	0.064 µM	16.1 µM (≈ 6.3 µg/mL)	208 °C (dec.)	
COc1ccc(C(CN2CCN(c3cc4c(cc3F)c(=O)c(C(=O)O)cn4-c3ccc([N+](=O)[O-])cc3F)CC2)=NO)cc1 [Exp. 8, 1-(4-Nitro-2-fluorophenyl)-6-fluoro-7-{4-[2-hydroxyimino-2-(4-methoxyphenyl)ethyl]-1-piperazinyl}-4-oxo-1,4-dihydroquinoline-3-carboxylic acid]	0.34 µM (≈ 0.202 µg/mL)	> 169 µM	5.28 µM (≈ 3.13 µg/mL)	1.32 µM (≈ 0.783 µg/mL)	1.32 µM (≈ 0.783 µg/mL)	42.2 µM (≈ 25 µg/mL)	0.08 µM	21.1 µM (≈ 12.5 µg/mL)		
CCn1cc(C(=O)O)c(=O)c2cc(F)c(N3CCN(CC(=NO)c4ccc(OC)cc4)CC3)c(F)c21 [Exp. 6, 1-Ethyl-6,8-difluoro-7-{4-[2-hydroxyimino-2-(4-methoxy-phenyl)ethyl]-1-piperazinyl}-4-oxo-1,4-dihydroquinoline-3-carboxylic acid]	0.2 µM (≈ 0.1 µg/mL)	0.4 µM (≈ 0.2 µg/mL)	3.16 µM (≈ 1.58 µg/mL)	6.34 µM (≈ 3.17 µg/mL)	0.4 µM (≈ 0.2 µg/mL)	3.16 µM (≈ 1.58 µg/mL)	0.10 µM	6.34 µM (≈ 3.17 µg/mL)	176 °C (dec.)	
CCn1cc(C(=O)O)c(=O)c2cc(F)c(N3CCN(CC(C)=NO)CC3)cc21 [Exp. 2, 1-Ethyl-6-fluoro-7-[4-(2-hydroxyiminopropyl)-1-piperazinyl]-4-oxo-1,4-dihydroquinoline-3-carboxylic acid]	0.51 µM (≈ 0.199 µg/mL)	2 µM (≈ 0.781 µg/mL)			0.51 µM (≈ 0.199 µg/mL)	16 µM (≈ 6.25 µg/mL)	0.13 µM	32.1 µM (≈ 12.5 µg/mL)	218 °C (dec.)	
COc1ccc(C(=O)CN2CCN(c3cc4c(cc3F)c(=O)c(C(=O)O)cn4-c3ccc(N)cc3F)CC2)cc1 [Exp. 12, 1-(4-amino-2-fluorophenyl)-6-fluoro-7-{4-[2-(4-methoxy-phenyl)-2-oxoethyl]-1-piperazinyl}-4-oxo-1,4-dihydroquinoline-3-carboxylic acid]	0.55 µM (≈ 0.302 µg/mL)	18.2 µM (≈ 9.98 µg/mL)	5.47 µM (≈ 3 µg/mL)	1.82 µM (≈ 0.998 µg/mL)	0.55 µM (≈ 0.302 µg/mL)	5.74 µM (≈ 3.15 µg/mL)	0.05 µM	18.2 µM (≈ 9.98 µg/mL)	143 °C (dec.)	
